The record followed here is patent US9050341B2, “Methods of treating drug resistant and other tumors by administering 6,7-dialkoxy quinazoline derivatives” (NATCO PHARMA LIMITED, priority 2009, dated 2015).

Series [1] in a line: Functional observational battery (FOB). It counts as in vivo, Wistar rats. Here is the method: The study was conducted in accordance with “S7A Safety Pharmacology Studies for Human Pharmaceuticals, ICH” July 2001, and as per this study protocol. […] Rats that had been fasted for 16 to 18 hours (access to water was not interrupted) were dosed with the compound or water. The rats were administered the compound in an aqueous formulation at three levels, 75, 125 and 250 mg/kg b.wt, as a single oral dose by gavage. The control group received water. The rats were subjected to the FOB 60-120 min. after drug administration.
Animals were subjected to the FOB one at a time except for the multiple activity cage where four animals were placed in four different cages simultaneously. Once complete, the animals were returned to their home cage and the cage placed back on the stand.
The FOB can be employed to assess multiple neurobiological domains including neuromuscular (weakness, in coordination, gait and tremor), sensory (audition, vision and somatosensory), and autonomic (pupil response and salivation) functions. The measures of a neuro behavioral screening battery have been divided into specific functional domains. For example, Lacrimation, salivation, pupil response, palpebral closure, defecation and urination are measures of some aspects of the autonomic system. Similarly the neuro muscular domain can be assessed based on the gait/mobility score, landing foot splay, grip strength and righting reflex; sensorimotor domain based on response to tail pinch and click/touch/approach response; CNS excitability domain based on ease of removal and handling of the animal, clonic/tonic movements, arousal and vocalization; CNS activity domain based on home cage posture, palpebral closure, rearing and motor activity and finally the physiological domain is assessed based on the body weight, body temperature and piloerection.

Series [2] can be described thus: Respiratory function, whole body plethysmograph. Format: in vivo. To be noted: conscious male Wistar rats, 75, 125 and 250 mg/kg oral, 3 hours. How it is done:
This study evaluated the effect of NRC-2694A monohydrochloride on respiratory function in conscious Wistar rats following administration of a single dose using a whole body plethysmograph. The study was conducted in accordance with “S7A Safety Pharmacology Studies for Human Pharmaceuticals, ICH” issued July 2001. The study used a parallel design with one vehicle and three test item treated groups. […] Male Wistar rats were placed in plethysmography chambers and baseline respiratory parameters were recorded for 30 minutes. Following drug administration respiratory parameters were recorded continuously for 3 hours.

A short description of series [3]: 30 day repeated dose toxicity in beagle dogs. Format: in vivo. How it is done:
The methods followed were as per CPMP/SWP/1042/99 (July 2000) and ICH S3A (March (1995)) guidelines. Prior to the 30 day repeated dose study, a dose range finding study was conducted, which included single dose MTD study followed by a 10 day repeated dose study. […]. The route of dosing was oral, by gelatin capsule. Based on the results of the dose range finding study, doses for the 30 days study were selected.
The 30 day repeated dose study employed 12 male and 12 female dogs (Marshall's Farm, China). The dogs were acclimatized for a minimum period of 2 weeks and randomly divided into four main groups (G1-G4), each group comprising of 3 dogs per sex. The animals were dosed orally with capsules of NRC-2694A for a period of 30 consecutive days at dose levels of 10 mg/kg b.wt/day (G2-low dose), 20 mg/kg b.wt/day (G3-mid dose) and 40 mg/kg b.wt/day (G4-high dose). […]. The control group (G1-0 mg/kg b. wt/day) animals were dosed by oral capsule with placebo.
The study also tracked body weight (weekly), food consumption (daily), opthalmological status (start and end), hematological and biochemical analyses (start and end), toxicokinetics analysis of plasma (start and end). […]

A short description of series [4]: Cardiovascular parameters in telemetered dogs. Format: in vivo, Beagle dogs. The following applies: for cardiovascular parameters (blood pressure, pulse pressure, heart rate, QT and QTcf intervals): telemetered male Beagle dogs, 15, 30 and 60 mg/kg b.wt. oral. How it is done: The study was conducted in accordance with ICH “S7A Safety Pharmacology Studies for Human Pharmaceuticals, Note for Guidance on Safety Pharmacology Studies for Human Pharmaceuticals, July 2001”. The doses tested were 0, 15, 30 and 60 mg/kg b.wt. given orally by gelatin capsule. Four male Beagle dogs, each implanted with a TL1IM2-D70-PCT transmitter (Data Sciences International, USA), were used for the study. During the study, the dogs were administered 4 oral treatments representing placebo and all test substance treatment groups with a three day (˜72 hour) wash-out period between each administration, using a Latin square cross-over design.
On dosing days, the telemetered dogs were observed once before commencement of data collection, continuously through 2 hours post-dose remotely and ˜8 hours post-dose for changes in behaviour. Cardiovascular parameters (systolic, diastolic and mean blood pressure, pulse pressure and heart rate) were recorded continuously for ˜60 minutes before dosing and up to 24 hours after dosing. Systolic, diastolic and mean blood pressures, pulse pressure and heart rate were obtained from the femoral artery waveform. Electrocardiograms were recorded continuously for ˜60 minutes before dosing and up to 24 hours after dosing. Electrocardiograms were obtained from subcutaneously placed bio-potential leads in a Lead II configuration. Heart rate and QT intervals were determined from the ECG's.

In series [5] the test system is Salmonella typhimurium (TA 98, TA 100, TA 102, TA 1535 and TA 1537). As to the kind of experiment: Ames bacterial reverse mutation assay. To be noted: five tester strains, with or without S9. Here is the method: The present study was conducted by the direct plate incorporation method with five tester strains of Salmonella typhimurium (TA 98, TA 100, TA 102, TA 1535 and TA 1537). […] Simultaneously, negative control cultures received DMSO and the respective positive controls received the mutagens 2-Amino anthracene, 2-Nitrofluorene, Sodium azide, 9-Aminoacridine and Mitomycin C (Sigma, St. Louis). In order to study the role of metabolic activation, cultures were incubated both with and without S9 mixture. The induction of Histidine positive colonies was computed and results were statistically treated for comparison.

Series [6] concerns the target T1, CAMK2G (Homo sapiens, UniProt Q13555).
T1 construct: purchased Ambit Biosciences Corp (KinomeScan); host or cells: E. coli host derived from the BL21 strain, T7 phage
As to the kind of experiment: KinomeScan kinase profiling. It counts as binding.

The nature of series [7]: Acute oral toxicity (MTD) in Wistar rats. It counts as in vivo.
Series [8] is described as follows: Acute oral toxicity (MTD) in Swiss albino mice. To be noted: for clinical signs of toxicity: oral, 1000 mg/kg (high dose), mono hydrochloride, 1000 mg/kg. Format: in vivo.
Protocol: 20 male and 20 female Swiss albino mice were randomly divided into four groups (G1-G4). Each group was 5 male and 5 female Swiss albino mice. […] G1 was treated with placebo and served as a control. […] The mid dose group animals (G3-treated with 500 mg/kg b.wt) were administered the dose formulation twice with a gap of approximately 1 hour. Animals from high dose group (G4-treated with 1000 mg/kg b.wt) received the dose formulation four times with a gap of approximately one hour.

T1 sequence (Q13555 whole entry): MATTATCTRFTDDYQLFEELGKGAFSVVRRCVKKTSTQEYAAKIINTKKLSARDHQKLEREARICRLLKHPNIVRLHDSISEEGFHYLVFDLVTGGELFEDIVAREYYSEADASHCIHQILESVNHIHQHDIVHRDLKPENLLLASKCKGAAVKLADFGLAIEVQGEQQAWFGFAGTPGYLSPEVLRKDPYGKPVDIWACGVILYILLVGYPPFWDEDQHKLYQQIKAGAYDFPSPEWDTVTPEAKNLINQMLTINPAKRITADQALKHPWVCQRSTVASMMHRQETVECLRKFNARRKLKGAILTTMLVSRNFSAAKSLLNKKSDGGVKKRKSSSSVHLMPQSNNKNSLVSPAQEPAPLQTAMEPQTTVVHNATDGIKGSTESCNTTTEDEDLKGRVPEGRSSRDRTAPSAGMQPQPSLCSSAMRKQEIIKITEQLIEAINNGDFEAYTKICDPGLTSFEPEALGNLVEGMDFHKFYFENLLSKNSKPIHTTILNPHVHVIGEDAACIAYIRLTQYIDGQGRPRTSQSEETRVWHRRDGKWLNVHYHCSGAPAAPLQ

Turning to `C#Cc1cccc(Nc2ncnc3cc(OC)c(OCCCN4CCOCC4)cc23)c1` [NRC-2694, N-(3-ethylnylphenyl)-7-methoxy-6-[3-(4-morpholinyl)propoxy]-4-quinazolinamine], the “neurotoxicity toward the central and peripheral nervous system” value in series [1] (Wistar rats, FOB) was “no evidence of neurotoxicity”. Besides, in series [2], the “respiratory parameters: respiratory rate, tidal volume, minute volume, and Penh” value is recorded as “lacks toxicity against respiratory function”. In series [3] (beagle dogs), the “toxicity compared with Erlotinib” value is reported as “significantly less toxic than Erlotinib HCl”. Further, in series [4], the “cardiovascular parameters (blood pressure, pulse pressure, heart rate, QT and QTcf intervals)” value is reported as “lacks toxicity against cardiovascular function”. The “mutagenicity in the Ames test” value in series [5] was “not mutagenic”. Further, in series [5] (0.0125-1.2500 mg/plate), the “induction of His revertant colonies” value is “lack of statistically significant induction”. In addition, in series [6], the “% Ctrl @ 10000 nM” value was found to be 58 % Ctrl. Besides, in series [7] (rat, in vivo), the “MTD, mice compared with rats” value is “the same in mice and rats”.

`C#Cc1cccc(Nc2ncnc3cc(OC)c(OCCCN4CCOCC4)cc23)c1.Cl` [NRC-2694 monohydrochloride, N-(3-ethylnylphenyl)-7-methoxy-6-[3-(4-morpholinyl)propoxy]-4-quinazolinamine mono hydrochloride]: the “adverse effects in the functional observational battery” value in series [1] (Wistar rats, 75, 125 and 250 mg/kg b.wt single oral dose) is given as “did not show any adverse effects”. Moreover, the “influence on the parameters of the FOB” value in series [1] (Wistar rats, 75, 125 and 250 mg/kg b.wt, 60-120 minutes post treatment) was “no influence on any of the parameters”. Further, the “maximum tolerated dose (MTD)” value in series [8] (acute oral gavage, Swiss albino mice) is on record as 1000 mg/kg body weight. For the same compound, the gross pathological examination entry in series [8] (mice, after day 14) was “did not reveal any lesions of pathological significance”. In addition, the “mean body weight and percent body weight” value in series [8] (mice, compared with control groups) is on record as “No significant alterations”. The “toxic signs or mortality” value in series [8] (mice, oral gavage, 250 mg/kg body weight (low dose) and 500 mg/kg (mid dose)) is listed as “did not produce any toxic signs or mortality”. The “clinical signs of toxicity” value in series [8] (mice, listed as NRC-2694A blend) was “signs of lethargy and piloerection in all animals without any mortality”. Further, the “clinical signs of toxicity” value in series [8] (mice) is “mild lethargy and piloerection”. In addition, the mortality entry in series [8] (mice, oral, 250, 500 and 1000 mg/kg, 14 days observation) is “No mortality”. Also, the “respiratory parameters: respiratory rate, tidal volume, minute volume, and Penh” value in series [2] is “did not influence any of the observed parameters”. In series [3] (beagle dogs, 30 days, orally by capsule), the “no observed adverse effect level (NOAEL)” value is reported as 10 mg/kg b.wt/day. In addition, in series [3] (dogs, low dose (G2) 10 mg/kg b.wt/day, 30 days), the symptoms of toxicity entry is recorded as “No symptoms of toxicity”. The “no observed effect level” value in series [4] (cardiovascular parameters, male Beagle dogs, oral) turned out to be 60 mg/kg b.wt. Moreover, the “cardiovascular parameters (blood pressure, pulse pressure, heart rate, QT and QTcf intervals)” value in series [4] is on record as “no significant negative effects”. Further, the “mutagenicity in the Ames test” value in series [5] is given as “non-mutagenic”. For the same compound, the “maximum tolerated dose (MTD)” value in series [7] (acute oral gavage, Wistar rats) amounted to 1000 mg/kg body weight. The gross pathological examination entry in series [7] (rats) is recorded as “did not reveal any lesions of pathological significance, except minimal uterus distension in two female rats”. Further, in series [7] (rats, G4 1000 mg/kg body wt.), the “chromodacryoorhea, incidence” value was 10/10; the “mild to severe lethargy, incidence” value is recorded as 10/10; the “piloerection, incidence” value was 10/10; the “ptosis, incidence” value is 4/10. In addition, the “weakness, incidence” value in series [7] (rats, G4 1000 mg/kg body wt.) is 1/10. For the same compound, the “body weight and percent body weight change” value in series [7] (rats, mid and high dose, days 7 and 14) is reported as “Statistically significant reduction”. For the same compound, the toxic signs entry in series [7] (rats, oral gavage, 1000 mg/kg body weight (high dose)) is “marked toxic signs with reduction in body weight but devoid of any pathological lesions and mortality”. Further, the “major toxic signs or mortality” value in series [7] (rats, oral gavage, 250 (low dose) and 500 mg/kg body weight (mid dose)) is reported as “did not produce any major toxic signs or mortality”. Besides, the mortality entry in series [7] (rats, oral, 250, 500 and 1000 mg/kg) is given as “No mortality”.
